Values joined by “and” are separate entries in the source; they are usually repeats but may differ in a detail not shown here. Equal entries are not always repeated. Structures can show the parent of a compound that is named as a salt.

Common to all, as to type: in vivo
In data set [1] the test system is fescue (Kentucky bluegrass No. 31). The data set is described as follows: Plant growth regulating activity, greenhouse. To be noted: 0.56 g/m^2 (5 lbs. per acre), two weeks. The method, then: Established stands of fescue (Kentucky bluegrass No. 31) in pots having an area of about 100 cm (16 square inches) were trimmed to a uniform height. Duplicate pots were removed to a spraying chamber and sprayed by means of an atomizer as in Example 3. The application rate of the active ingredient was 0.56 g/m^2 (5 lbs. per acre) while applying a total amount of solution equivalent to 187 ml/m^2 (200 gal/acre). The pots were returned to the greenhouse and watered with the controls on a daily basis. After two weeks, the height of the grass was measured.

The subject of another data set is Pennsylvania Smartweed. The data set is described as follows: Post-emergent herbicide activity, greenhouse. To be noted: 5.6 g/m^2. The source says: (§1) Top soil was placed in pans having holes in the bottom and compacted to a depth of 0.95 to 1.27 cm from the top of the pan. A predetermined number of seeds of each of several plant species or vegetative propagules for perennial plant species were placed on the soil and pressed into the soil surface. The seeds or propagules were covered with soil and leveled. The pans were then placed on a bench in the greenhouse and watered as needed for germination and growth. After the plants reached the desired age (2 to 3 weeks) each pan, except the control pans, was removed to a spraying chamber and sprayed by means of an atomizer. In the spray solution, an emulsifying agent was added to give a spray solution which contains about 0.4% by volume of the emulsifier. The spray solution contained a sufficient amount of the compound of Example 1 to give an application rate of the active ingredient of 2.8 g/m^2 (25 lbs. per acre) and 5.6 g/mz (50 lbs. per acre), while applying a total amount of solution equivalent to 187 ml/m^2 (200 gal per acre). The pans were returned to the greenhouse and watered as before, and the injury to the plants as compared to those in control pans was observed after 14 days after spraying, and again, 27 days after spraying.

Another data set has as its system Yellow Nutsedge. The data set is described as follows: Post-emergent herbicide activity, greenhouse. The following applies: 5.6 g/m^2.
Source text: as §1

In another data set the test system is Rhizone Johnsongrass. The data set is described as follows: Post-emergent herbicide activity, greenhouse. The following applies: 5.6 g/m^2.
Source text: as §1

In a further data set the test system is Barnyardgrass. The data set is described as follows: Post-emergent herbicide activity, greenhouse. The following applies: 5.6 g/m^2.
Source text: as §1

For the next data set, the system named is Morningglory. The data set is described as follows: Post-emergent herbicide activity, greenhouse. The following applies: 5.6 g/m^2.
Source text: as §1

The next data set deals with Quackgrass. The data set is described as follows: Post-emergent herbicide activity, greenhouse. To be noted: 5.6 g/m^2.
Source text: as §1

For another data set, the system named is Downy Brome. The data set is described as follows: Post-emergent herbicide activity, greenhouse. To be noted: 5.6 g/m^2.
Source text: as §1

Another data set concerns Common Lambsquarters. The data set is described as follows: Post-emergent herbicide activity, greenhouse. The following applies: 5.6 g/m^2.
Source text: as §1

The test system of the next data set is Velvetleaf. The data set is described as follows: Post-emergent herbicide activity, greenhouse. To be noted: 5.6 g/m^2.
Source text: as §1

The test system of a further data set is Cocklebur. The data set is described as follows: Post-emergent herbicide activity, greenhouse. The following applies: 5.6 g/m^2.
Source text: as §1

A further data set has as its system Canada Thistle. The data set is described as follows: Post-emergent herbicide activity, greenhouse. The following applies: 5.6 g/m^2.
Source text: as §1

The test system of the next data set is plants. The data set is described as follows: Biological activity, greenhouse tests according to Examples 3 and 4. The following applies: according to the procedure of Examples 3 and 4.
Source text: as §1, with “The pans were returned to the greenhouse and watered as before, and the injury to the plants as compared to those in control pans was observed after 14 days after spraying, and again, 27 days after spraying.” left out
Established stands of fescue (Kentucky bluegrass No. 31) in pots having an area of about 100 cm (16 square inches) were trimmed to a uniform height. […] After two weeks, the height of the grass was measured. […]

On to `COP1(=O)CN(CC(=O)O)CO1` (stereo not drawn) [Example 1, triethylamine salt of 1,4,2-oxazaphospholidine-4-acetic acid, 2-methoxy-2-oxide], for which the “average growth rate of treated fescue relative to controls” value in [1] was 43 % of the controls. The “growth of treated grass over two-week period” value in [1] (duplicate pots, control pots grew average 199.58 mm) is 80 mm and 90 mm. The “discoloration or other sign of phytotoxicity” value in [1] (fescue) is “did not show any discoloration or other sign of phytotoxicity”. Further, the “Plant Response After 14 Days” value with Pennsylvania Smartweed (14 days after spraying) is 0 (0-24% inhibition); in the data set on Yellow Nutsedge (14 days after spraying), 0 (0-24% inhibition); in the data set on Rhizone Johnsongrass (14 days after spraying) it was 0 (0-24% inhibition); in the data set on Barnyardgrass (14 days after spraying), 1 (25-49% inhibition); with Morningglory (14 days after spraying) it was 1 (25-49% inhibition); in the data set on Quackgrass (14 days after spraying), 0 (0-24% inhibition). Moreover, the “Plant Response After 14 Days” value was 0 (0-24% inhibition) in the data set with Downy Brome (14 days after spraying); 0 (0-24% inhibition) in the data set with Common Lambsquarters (14 days after spraying); 0 (0-24% inhibition) in the data set with Velvetleaf (14 days after spraying); 1 (25-49% inhibition) in the data set with Cocklebur (14 days after spraying); 0 (0-24% inhibition) in the data set with Canada Thistle (14 days after spraying). Also, the “Plant Response After 27 Days” value in the data set with Pennsylvania Smartweed (27 days after spraying) is listed as 0 (0-24% inhibition); with Yellow Nutsedge (27 days after spraying), 1 (25-49% inhibition); in the data set with Rhizone Johnsongrass (27 days after spraying) it was 0 (0-24% inhibition); in the data set with Barnyardgrass (27 days after spraying) it was 1 (25-49% inhibition); in the data set with Morningglory (27 days after spraying), 1 (25-49% inhibition); in the data set on Quackgrass (27 days after spraying), 1 (25-49% inhibition). The “Plant Response After 27 Days” value with Downy Brome (27 days after spraying) is reported as 0 (0-24% inhibition); in the data set on Common Lambsquarters (27 days after spraying), 0 (0-24% inhibition); in the data set on Velvetleaf (27 days after spraying) it was 0 (0-24% inhibition); with Cocklebur (27 days after spraying), 1 (25-49% inhibition); with Canada Thistle (27 days after spraying), 0 (0-24% inhibition).

Regarding `COP1(=O)CN(CC(=O)O)CO1` (stereo not drawn) [Example 2, 1,4,2-oxazaphospholidine-4-acetic acid, 2-alkoxy-2-oxide], the “biological activity (post-emergent herbicide and plant growth regulating), in words” value in the data set with plants is “Satisfactory results are achieved”.

With `COP1(=O)CN(CC(=O)O)CO1` (stereo not drawn) [Example 5, Triisopropylamine Salt of 1,4,2-Oxazaphospholidine-4-Acetic Acid, 2-Methoxy-2-Oxide], the “biological activity (post-emergent herbicide and plant growth regulating), in words” value in the data set on plants is given as “Satisfactory results are achieved”.

(Values after US4889906A, “Amine salts of 1,4,2-oxazaphospholidine-4-acetic acid, 2-alkoxy-2-oxides” (Monsanto Company, priority 1988, dated 1989).)
